Each block holds one compound with its values, some of them ahead of it.
Tested on: 233499-124-R-J3-PDC complex spheroid growth
Test: Anticancer human tumor 233499-124-R-J3-PDC patient-derived colon adenocarcinoma cell line growth inhibition [AhR]
Conditions: for IC50: curve of first compound; for viability, T/C: stronger effect = lower value
How it was run: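 Agents were dosed in half-log steps down from roughly clinical Cmax, or from 10 microM where Cmax was unknown, alone and with AhR antagonists. Read-out: percent test/control growth of tumor spheroids containing HUVEC and MSC stromal cells.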

[1] = second compound 0.1 µM, first compound 0.0316 µM
[2] = second compound 0.1 µM, first compound 0.1 µM
[3] = second compound 0.1 µM, first compound 0.316 µM
[4] = second compound 0.1 µM, first compound 1 µM
[5] = second compound 0.1 µM, first compound 3.16 µM
[6] = second compound 0.1 µM, first compound 10 µM
[7] = second compound 0.316 µM, first compound 0.0316 µM
[8] = second compound 0.316 µM, first compound 0.1 µM
[9] = second compound 0.316 µM, first compound 0.316 µM
[10] = second compound 0.316 µM, first compound 1 µM
[11] = second compound 0.316 µM, first compound 3.16 µM
[12] = second compound 0.316 µM, first compound 10 µM
[13] = second compound 1 µM, first compound 0.0316 µM
[14] = second compound 1 µM, first compound 0.1 µM
[15] = second compound 1 µM, first compound 0.316 µM
[16] = second compound 1 µM, first compound 1 µM
[17] = second compound 1 µM, first compound 3.16 µM
[18] = second compound 1 µM, first compound 10 µM
[19] = second compound 3.16 µM, first compound 0.0316 µM
[20] = second compound 3.16 µM, first compound 0.1 µM
[21] = second compound 3.16 µM, first compound 0.316 µM
[22] = second compound 3.16 µM, first compound 1 µM
[23] = second compound 3.16 µM, first compound 3.16 µM
[24] = second compound 3.16 µM, first compound 10 µM
[25] = second compound 10 µM, first compound 0.0316 µM
[26] = second compound 10 µM, first compound 0.1 µM
[27] = second compound 10 µM, first compound 0.316 µM
[28] = second compound 10 µM, first compound 1 µM
[29] = second compound 10 µM, first compound 3.16 µM
[30] = second compound 10 µM, first compound 10 µM
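Further: spheroids exposed to agents for seven days before reading.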

IC50 (second compound 0.1 µM): > 10 µM | IC50 (second compound 0.316 µM): 8.7 µM | IC50 (second compound 1 µM): 9.24 µM | IC50 (second compound 3.16 µM): 7.49 µM | IC50 (second compound 10 µM): 7.21 µM
Structure (SMILES): CC1(C)CCC(CN2CCN(c3ccc(C(=O)NS(=O)(=O)c4ccc(NCC5CCOCC5)c([N+](=O)[O-])c4)c(Oc4cnc5[nH]ccc5c4)c3)CC2)=C(c2ccc(Cl)cc2)C1 + Cc1ccccc1N=Nc1ccc(NC(=O)c2ccnn2C)c(C)c1
viability, T/C [1]: 94.8% | viability, T/C [2]: 116% | viability, T/C [3]: 102% | viability, T/C [4]: 108% | viability, T/C [5]: 117% | viability, T/C [6]: 51.5% | viability, T/C [7]: 111% | viability, T/C [8]: 110% | viability, T/C [9]: 97% | viability, T/C [10]: 112% | viability, T/C [11]: 118% | viability, T/C [12]: 41.8% | viability, T/C [13]: 104% | viability, T/C [14]: 106% | viability, T/C [15]: 97.6% | viability, T/C [16]: 122% | viability, T/C [17]: 122% | viability, T/C [18]: 45.5% | viability, T/C [19]: 102% | viability, T/C [20]: 97.7% | viability, T/C [21]: 104% | viability, T/C [22]: 99.4% | viability, T/C [23]: 113% | viability, T/C [24]: 32.2% | viability, T/C [25]: 121% | viability, T/C [26]: 99.3% | viability, T/C [27]: 112% | viability, T/C [28]: 107% | viability, T/C [29]: 109% | viability, T/C [30]: 26.6%

IC50 (second compound 0.1 µM): > 3 µM | IC50 (second compound 0.316 µM): > 3 µM | IC50 (second compound 1 µM): > 3 µM | IC50 (second compound 3.16 µM): > 3 µM | IC50 (second compound 10 µM): > 3 µM
Structure (SMILES): CCN(c1cc(-c2ccc(CN3CCOCC3)cc2)cc(C(=O)NCc2c(C)cc(C)[nH]c2=O)c1C)C1CCOCC1 + Cc1ccccc1N=Nc1ccc(NC(=O)c2ccnn2C)c(C)c1
viability, T/C (second compound 0.1 µM, first compound 0.00949 µM): 99.3% | viability, T/C (second compound 0.1 µM, first compound 0.03 µM): 98% | viability, T/C (second compound 0.1 µM, first compound 0.0949 µM): 95.1% | viability, T/C (second compound 0.1 µM, first compound 0.3 µM): 97.1% | viability, T/C (second compound 0.1 µM, first compound 0.949 µM): 97.2% | viability, T/C (second compound 0.1 µM, first compound 3 µM): 102% | viability, T/C (second compound 0.316 µM, first compound 0.00949 µM): 88% | viability, T/C (second compound 0.316 µM, first compound 0.03 µM): 95.8% | viability, T/C (second compound 0.316 µM, first compound 0.0949 µM): 100% | viability, T/C (second compound 0.316 µM, first compound 0.3 µM): 95.3% | viability, T/C (second compound 0.316 µM, first compound 0.949 µM): 98.3% | viability, T/C (second compound 0.316 µM, first compound 3 µM): 96.6% | viability, T/C (second compound 1 µM, first compound 0.00949 µM): 107% | viability, T/C (second compound 1 µM, first compound 0.03 µM): 97.6% | viability, T/C (second compound 1 µM, first compound 0.0949 µM): 104% | viability, T/C (second compound 1 µM, first compound 0.3 µM): 93.1% | viability, T/C (second compound 1 µM, first compound 0.949 µM): 92.3% | viability, T/C (second compound 1 µM, first compound 3 µM): 100% | viability, T/C (second compound 3.16 µM, first compound 0.00949 µM): 95.1% | viability, T/C (second compound 3.16 µM, first compound 0.03 µM): 93.9% | viability, T/C (second compound 3.16 µM, first compound 0.0949 µM): 105% | viability, T/C (second compound 3.16 µM, first compound 0.3 µM): 91.7% | viability, T/C (second compound 3.16 µM, first compound 0.949 µM): 92.6% | viability, T/C (second compound 3.16 µM, first compound 3 µM): 93.7% | viability, T/C (second compound 10 µM, first compound 0.00949 µM): 101% | viability, T/C (second compound 10 µM, first compound 0.03 µM): 96.1% | viability, T/C (second compound 10 µM, first compound 0.0949 µM): 91.8% | viability, T/C (second compound 10 µM, first compound 0.3 µM): 92.7% | viability, T/C (second compound 10 µM, first compound 0.949 µM): 93.9% | viability, T/C (second compound 10 µM, first compound 3 µM): 99.5%

IC50 (second compound 0.1 µM): > 10 µM | IC50 (second compound 0.316 µM): > 10 µM | IC50 (second compound 1 µM): > 10 µM | IC50 (second compound 3.16 µM): > 10 µM | IC50 (second compound 10 µM): > 10 µM
Structure (SMILES): COc1cc(Nc2ncc3c(n2)-c2ccc(Cl)cc2C(c2c(F)cccc2OC)=NC3)ccc1C(=O)O + Cc1ccccc1N=Nc1ccc(NC(=O)c2ccnn2C)c(C)c1
viability, T/C [1]: 92.5% | viability, T/C [2]: 81.9% | viability, T/C [3]: 96.3% | viability, T/C [4]: 98.5% | viability, T/C [5]: 86.5% | viability, T/C [6]: 96.7% | viability, T/C [7]: 83.1% | viability, T/C [8]: 77.5% | viability, T/C [9]: 96.4% | viability, T/C [10]: 93.1% | viability, T/C [11]: 96.6% | viability, T/C [12]: 84.2% | viability, T/C [13]: 89% | viability, T/C [14]: 93.2% | viability, T/C [15]: 90.4% | viability, T/C [16]: 87.2% | viability, T/C [17]: 97.5% | viability, T/C [18]: 92.1% | viability, T/C [19]: 91.5% | viability, T/C [20]: 80.4% | viability, T/C [21]: 102% | viability, T/C [22]: 105% | viability, T/C [23]: 85.2% | viability, T/C [24]: 100% | viability, T/C [25]: 109% | viability, T/C [26]: 101% | viability, T/C [27]: 102% | viability, T/C [28]: 101% | viability, T/C [29]: 116% | viability, T/C [30]: 115%

IC50 (second compound 0.1 µM): > 0.1 µM | IC50 (second compound 0.316 µM): > 0.1 µM | IC50 (second compound 1 µM): > 0.1 µM | IC50 (second compound 3.16 µM): > 0.1 µM | IC50 (second compound 10 µM): > 0.1 µM
Structure (SMILES): Cn1ncnc1C1c2n[nH]c(=O)c3cc(F)cc(c23)NC1c1ccc(F)cc1 (stereo not given) + Cc1ccccc1N=Nc1ccc(NC(=O)c2ccnn2C)c(C)c1
viability, T/C (second compound 0.1 µM, first compound 0.000316 µM): 104% | viability, T/C (second compound 0.1 µM, first compound 0.001 µM): 107% | viability, T/C (second compound 0.1 µM, first compound 0.00316 µM): 110% | viability, T/C (second compound 0.1 µM, first compound 0.01 µM): 110% | viability, T/C [1]: 99.2% | viability, T/C [2]: 106% | viability, T/C (second compound 0.316 µM, first compound 0.000316 µM): 93% | viability, T/C (second compound 0.316 µM, first compound 0.001 µM): 105% | viability, T/C (second compound 0.316 µM, first compound 0.00316 µM): 106% | viability, T/C (second compound 0.316 µM, first compound 0.01 µM): 101% | viability, T/C [7]: 95.8% | viability, T/C [8]: 94.7% | viability, T/C (second compound 1 µM, first compound 0.000316 µM): 108% | viability, T/C (second compound 1 µM, first compound 0.001 µM): 113% | viability, T/C (second compound 1 µM, first compound 0.00316 µM): 103% | viability, T/C (second compound 1 µM, first compound 0.01 µM): 101% | viability, T/C [13]: 99% | viability, T/C [14]: 109% | viability, T/C (second compound 3.16 µM, first compound 0.000316 µM): 95.6% | viability, T/C (second compound 3.16 µM, first compound 0.001 µM): 102% | viability, T/C (second compound 3.16 µM, first compound 0.00316 µM): 90.3% | viability, T/C (second compound 3.16 µM, first compound 0.01 µM): 97.2% | viability, T/C [19]: 94.9% | viability, T/C [20]: 99.2% | viability, T/C (second compound 10 µM, first compound 0.000316 µM): 109% | viability, T/C (second compound 10 µM, first compound 0.001 µM): 110% | viability, T/C (second compound 10 µM, first compound 0.00316 µM): 109% | viability, T/C (second compound 10 µM, first compound 0.01 µM): 98.7% | viability, T/C [25]: 89.8% | viability, T/C [26]: 98.9%

IC50 (second compound 0.1 µM): 0.409 µM | IC50 (second compound 0.316 µM): 0.442 µM | IC50 (second compound 1 µM): 0.395 µM | IC50 (second compound 3.16 µM): 0.475 µM | IC50 (second compound 10 µM): 0.637 µM
Structure (SMILES): NS(=O)(=O)OCC1CC(n2ccc3c(NC4CCc5ccccc54)ncnc32)CC1O (stereo not given) + Cc1ccccc1N=Nc1ccc(NC(=O)c2ccnn2C)c(C)c1
viability, T/C [1]: 110% | viability, T/C [2]: 113% | viability, T/C [3]: 61.3% | viability, T/C [4]: 10.8% | viability, T/C [5]: 2.55% | viability, T/C [6]: 3.77% | viability, T/C [7]: 125% | viability, T/C [8]: 96.6% | viability, T/C [9]: 68.1% | viability, T/C [10]: 16.6% | viability, T/C [11]: 3.6% | viability, T/C [12]: 2.37% | viability, T/C [13]: 116% | viability, T/C [14]: 103% | viability, T/C [15]: 58.2% | viability, T/C [16]: 15.8% | viability, T/C [17]: 3.88% | viability, T/C [18]: 3.13% | viability, T/C [19]: 115% | viability, T/C [20]: 97.5% | viability, T/C [21]: 70.8% | viability, T/C [22]: 14.6% | viability, T/C [23]: 2.81% | viability, T/C [24]: 3.25% | viability, T/C [25]: 109% | viability, T/C [26]: 108% | viability, T/C [27]: 83.6% | viability, T/C [28]: 28.6% | viability, T/C [29]: 4.02% | viability, T/C [30]: 3.01%
